How the values were obtained:
[1] = biological target: T1, recombinantly expressed OR2AT4 (Homo sapiens, UniProt A6NND4); assay: Calcium imaging of transiently OR2AT4-transfected Hana3A cells; assay type: cell-based; conditions: for response rate of the Hana3A cells relative to the Ringer control: 1 mM odorant, 20 s stimulation, OR2AT4-transfected Hana3A cells; for agonist or antagonist to heterologously expressed OR2AT4: summary of calcium imaging and luciferase results
T1 construct: expressed in transfected cells; host or cells: Hana3A cells, transient transfection with pcDNA3-OR2AT4 by the calcium phosphate method
T1 sequence (A6NND4 1-320): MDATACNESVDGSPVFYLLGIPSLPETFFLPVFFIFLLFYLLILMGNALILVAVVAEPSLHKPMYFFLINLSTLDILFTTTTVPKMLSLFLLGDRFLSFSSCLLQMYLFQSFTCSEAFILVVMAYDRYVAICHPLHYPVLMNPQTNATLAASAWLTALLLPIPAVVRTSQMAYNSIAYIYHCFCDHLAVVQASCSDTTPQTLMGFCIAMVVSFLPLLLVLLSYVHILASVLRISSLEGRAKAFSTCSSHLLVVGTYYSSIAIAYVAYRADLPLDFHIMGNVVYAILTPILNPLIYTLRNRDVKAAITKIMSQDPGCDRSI
Procedure: Hana3A cells expressing stable endogenous olfactory transduction factors, which specifically target the incorporation of ORs into the cell membrane and thus improve activation capacity, were used as a heterologous expression system. Moreover, the 20 first N-terminal amino acids of rhodopsins (Rho-tag) were added before the N-terminus of the coding sequence of the OR, also in order to support heterologous expression.
A method established at the Department of Cell Physiology of Ruhr University Bochum for deorphanization studies is calcium imaging, in which activation of an OR by an odorant is visualized by a change in the intracellular calcium concentration of transfected cells using a fluorescent dye [cf. Wetzel et al. in: J. Neurosci. 19, pp. 7426-7433 (1999); Spehr et al. in: Science 299, pp. 2054-2058 (2003); Neuhaus et al. in: J. Biol. Chem. 284, pp. 16218-16225 (2009)]. In this method, the Hana3A cells are briefly (20 s) stimulated with an odorant and selected for odorant screenings of high concentrations (up to 1 mM) in order to confirm activation of ORs weakly expressed in Hana3A cells.
The activation of OR2AT4 by Sandalore® was first investigated by the calcium imaging method.
Odorants can not only activate a receptor, but can also act as antagonists to an OR.
Determination of receptive field of recombinantly expressed OR2AT4. […] As a control, untransfected Hana3A cells were simulated with Sandalore®. 100 μM of ATP was used at the end of each measurement as a positive control stimulus. […] The mean response rate including standard error of the cells is shown relative to the Ringer control. […] Isobornyl.: isobornyl cyclohexanol; S. öl: sandalwood oil. Kruskal-Wallis test with multiple comparison. *: p<0.05. […] Significance was determined between Hana3A cells transfected with OR2AT4-pcDNA3 and pcDNA3 without an insert. The dots show mean normalized luciferase-activity including standard error. Mann-Whitney U test; n=3 experiments. *: p<0.05; **: p<0.01; ***: p<0.001.
Antagonists of recombinantly expressed OR2AT4. […] 100 μM of ATP was used at the end of each measurement as a positive control stimulus. […] The mean response rate including standard error of the cells is shown relative to the Ringer control. Number of measurements: Ringer (23), Sandalore® (22), Sandalore®+dimetol (11), dimetol (11), Phenirat (14), Sandalore®+Phenirat (22), Oxyphenylon (12), and Sandalore®+Oxyphenylon (20). S: Sandalore®. Kruskal-Wallis test with multiple comparison. *: p<0.05.

HaCaT cells = assay: In vitro wound scratch assay, HaCaT cells; assay type: cell-based, human; conditions: for faster closing of the scratch: HaCaT cells, 500 μM, observed for two days
From the text: The MAP kinases p38 and ERK1/2 are often associated with increased proliferation and migration in epidermal wound healing. For this reason, in a further physiological experiment, the effect of Sandalore® on “wound healing” of a confluent cell layer of HaCaT cells or primary keratinocytes was investigated. For this purpose, the wound scratch assay was used, which is an established in vitro method for initial investigations of wound healing processes in keratinocytes.
In order to investigate the role of the OR2AT4 receptor in this effect, a test was conducted to determine whether the two antagonists Oxyphenylon and Phenirat could again reduce the “wound healing” increased by Sandalore®. For this purpose, Sandalore® was mixed with one of the antagonists each in the same ratio, and the effect on “wound healing” of the HaCaT cells was again observed for 48 hours. […] The two antagonists alone had no effect on the “wound healing” (FIG. 18d). The role of the MAP kinases p38 and ERK1/2 was investigated by means of specific inhibitors of the kinases. For p38 MAPK, the […] SB203580 was used, and for ERK1/2 MAPK, the […] U0126 was used. […] The two inhibitors alone had no effect on the wound healing (FIG. 18d).
Effect of Sandalore® stimulation on human keratinocytes in an in vitro “wound healing” assay. Investigation of the “wound healing rate” of A) primary keratinocytes and B) HaCaT cells by means of a wound scratch assay in the presence of Sandalore® (500 μM) or 0.1% DMSO as a control. Left: Transmitted light images of the “wound” observed at various times. The growth margin of the cells was surrounded in black. Scale: 200 μm. Right: Quantitative evaluation of the wound scratch assay. The areas of the wounds were measured and compared to the initial wound (0 h). Mean values including standard error. Mann-Whitney U test; n=4 experiments. *: p<0.05; ***: p<0.001. C) Wound scratch assay in the presence of Sandalore® (500 μM) and one of the antagonists Oxyphenylon (500 μM) or Phenirat (500 μM) respectively, the p38 MAPK inhibitor 5B203580 (10 μM), or the ERK1/2 MAPK inhibitor U0126 (10 μM). The measured wound areas of the treated cells (after 48-hour stimulation) were compared to the control (0.1% DMSO). Mean values including standard error. Kruskal-Wallis test with multiple comparison; n=3 experiments. *: p<0.05. D) Controls for the wound scratch assay with Oxyphenylon (500 μM), Phenirat (500 μM), 5B203580 (10 μM), or U0126 (10 μM) carried out under C). The measured wound areas of the treated cells were compared to the control (0.1% DMSO). Mean value included.

agonist or antagonist to heterologously expressed OR2AT4 [1] | agonist or antagonist to heterologously expressed OR2AT4 ([1]; listed as Brahmanol) | effect on Sandalore-induced calcium signals in coapplication ([1]; coapplication with Sandalore 1:1, 1 mM respectively) | effect of the odorant alone on the Hana3A cells ([1]; odorant alone, 1 mM) | SMILES | response rate of the Hana3A cells relative to the Ringer control [1] | faster closing of the scratch (HaCaT cells) [%] | Sandalore-increased wound healing on coincubation (HaCaT cells; HaCaT, 48 hours, Sandalore 500 μM + antagonist 500 μM or inhibitor 10 μM) | effect of the substance alone on wound healing (HaCaT cells; HaCaT, antagonist 500 μM or inhibitor 10 μM alone) | agonist or antagonist to heterologously expressed OR2AT4 ([1]; listed as Sandalore)
agonists | only agonists | – | – | CC1=CCC(CCC(C)CO)C1(C)C (stereo not shown) [Brahmanol®] | increased response rate in calcium imaging experiments, although the increase was not significant | 26 | – | – | –
antagonists | – | significantly reduced | no effect | CC(=O)CCc1ccc(O)cc1 [Oxyphenylon] | – | – | reduced “wound healing” to the normal level | no effect | –

SMILES | agonist or antagonist to heterologously expressed OR2AT4 [1] | agonist or antagonist to heterologously expressed OR2AT4 ([1]; listed as Brahmanol) | effect on Sandalore-induced calcium signals in coapplication ([1]; coapplication with Sandalore 1:1, 1 mM respectively) | effect of the odorant alone on the Hana3A cells ([1]; odorant alone, 1 mM) | response rate of the Hana3A cells relative to the Ringer control [1] | faster closing of the scratch (HaCaT cells) [%] | Sandalore-increased wound healing on coincubation (HaCaT cells; HaCaT, 48 hours, Sandalore 500 μM + antagonist 500 μM or inhibitor 10 μM) | effect of the substance alone on wound healing (HaCaT cells; HaCaT, antagonist 500 μM or inhibitor 10 μM alone) | agonist or antagonist to heterologously expressed OR2AT4 ([1]; listed as Sandalore)
CC1=CCC(CCC(C)C(C)O)C1(C)C (stereo not shown) [Sandalore®] | agonists | – | – | – | significantly increased response rate | 26 | – | – | only agonists

Source: patent publication US10835500B2, “Medicament for accelerated wound healing” (Symrise AG, priority 2014, dated 2020)
